Test results: patent EP1019392B1, “TRICYCLIC AMIDES USEFUL FOR INHIBITION OF G-PROTEIN FUNCTION AND FOR TREATMENT OF PROLIFERATIVE DISEASES” (SCHERING CORPORATION, priority 1995, dated 1997)

Target: T1, geranylgeranyl protein transferase (GGPT) I (Rattus norvegicus, UniProt P53610+Q04631)
T1 construct: geranylgeranyl protein transferase (GGPT) I were partially purified from rat brain; from tissue; host or cells: rat brain
Assay: In vitro enzyme assay: inhibition of geranylgeranyl protein transferase I (Ras-CVLL as acceptor)
Format: biochemical
Settings: Table 2; Ras-CVLL as isoprenoid acceptor
Description: • 1. In vitro enzyme assays: Inhibition of farnesyl protein transferase and geranylgeranyl protein transferase. Both farnesyl protein transferase (FPT) and geranylgeranyl protein transferase (GGPT) I were partially purified from rat brain by ammonium sulfate fractionation followed by Q-Sepharose (Pharmacia, Inc.) anion exchange chromatography essentially as described by Yokoyama et al (Yokoyama, K., et al., (1991), A protein geranylgeranyltransferase from bovine brain: Implications for protein prenylation specificity, Proc. Natl. Acad. Sci USA 88: 5302-5306, the disclosure of which is incorporated herein by reference thereto). Human farnesyl protein transferase was also expressed in E. coli, using cDNA clones encoding both the a and b subunits. The methods used were similar to those published (Omer, C. et al., (1993), Characterization of recombinant human farnesyl protein transferase: Cloning, expression, farnesyl diphosphate binding, and functional homology with yeast prenyl-protein transferases, Biochemistry 32:5167-5176). Human farnesyl protein transferase was partially-purified from the soluble protein fraction of E. coli as described above. The tricyclic farnesyl protein transferase inhibitors disclosed herein inhibited both human and rat enzyme with similar potencies. Two forms of val^12-Ha-Ras protein were prepared as substrates for these enzymes, differing in their carboxy terminal sequence. One form terminated in cysteine-valine-leucine-serine (Ras-CVLS) the other in cystein-valine-leucine-leucine (Ras-CVLL). Ras-CVLS is a substrate for the farnesyl protein transferase while Ras-CVLL is a substrate for geranylgeranyl protein transferase I. The cDNAs encoding these proteins were constructed so that the proteins contain an amino-terminal extension of 6 histidine residues. Both proteins were expressed in Escherichia coli and purified using metal chelate affinity chromatography. The radiolabelled isoprenyl pyrophosphate substrates, [^3H]farnesyl pyrophosphate and [^3H]geranylgeranyl pyrophosphate, were purchased from DuPont/New England Nuclear. Several methods for measuring farnesyl protein transferase activity have been described (Reiss et al 1990, Cell 62: 81; Schaber et al 1990, J. Biol. Chem. 265: 14701; Manne et al 1990, PNAS 87: 7541; and Barbacid & Manne 1993, U.S. Patent No. 5,185,248). The activity was assayed by measuring the transfer of [^3H]farnesyl from [^3H]farnesyl pyrophosphate to Ras-CVLS using conditions similar to those described by Reiss et al. 1990 (Cell 62: 81) The reaction mixture contained 40 mM Hepes, pH 7.5; 20 mM magnesium chloride; 5 mM dithiothreitol; 0.25 µM [^3H]farnesyl pyrophosphate; […] Q-Sepharose-purified farnesyl protein transferase; the indicated concentration of tricyclic compound or dimethylsulfoxide (DMSO) vehicle control (5% DMSO final); and […] Ras-CVLS in a total volume of […]. The reaction was allowed to proceed for 30 minutes at room temperature and then stopped with 0.5 ml of 4% sodium dodecyl sulfate (SDS) followed by 0.5 ml of cold 30% TCA. Samples were allowed to sit on ice for 45 minutes and precipitated Ras protein was then collected on GF/C filter paper mats using a Brandel cell harvester. Filter mats were washed once with 6% TCA, 2% SDS and radioactivity was measured in a Wallac 1204 Betaplate BS liquid scintillation counter. Percent inhibition was calculated relative to the DMSO vehicle control. The geranylgeranyl protein transferase I assay was essentially identical to the farnesyl protein transferase assay described above, with two exceptions: [^3H]geranylgeranylpyrophosphate replaced farnesyl pyrophosphate as the isoprenoid donor and Ras-CVLL was the protein acceptor. This is similar to the assay reported by Casey et al (Casey, P.J., et al., (1991), Enzymatic modification of proteins with a geranylgeranyl isoprenoid, Proc. Natl. Acad. Sci, USA 88: 8631-8635, the disclosure of which is incorporated herein by reference thereto). • 2. […]

`O=C(Cc1cc[n+]([O-])cc1)N1CCN([C@H]2c3ccc(Cl)cc3CCc3cc(Br)cnc32)CC1` [Example 16B] showed an IC50 of over 76 µM.
Molecule `O=C(Cc1cc[n+]([O-])cc1)N1CCN([C@@H]2c3ccc(Cl)cc3CCc3cc(Br)cnc32)CC1` [Example 16A] has an IC50 of over 38 µM.
`O=C(Cc1cc[n+]([O-])cc1)N1CCC([C@H]2c3ncc(Br)cc3CCc3cc(Cl)cc(Br)c32)CC1` [Example 9] was tested, and the IC50 was over 59 µM.
`O=C(Cc1cc[n+]([O-])cc1)N1CCC(=C2c3ncc(Br)cc3CCc3cc(Cl)cc(Br)c32)CC1` (racemic) [Example 7] was tested, and the IC50 was over 300 µM.
Work on `NC(=O)N1CCC(CC(=O)N2CCC(C3c4ncc(Br)cc4CCc4cc(Cl)cc(Cl)c43)CC2)CC1` (single isomer, unassigned) [Example 18] yielded an IC50 of over 50 µM.
With `O=C(Cc1cc[n+]([O-])cc1)N1CCC(=C2c3ccc(Cl)c(Br)c3CCc3cc(Br)cnc32)CC1` [Example 2] the IC50 was over 300 µM.
In the case of `O=C(Cc1cc[n+]([O-])cc1)N1CCN([C@H]2c3ncc(Br)cc3CCc3cc(Cl)cc(Br)c32)CC1` [Example 11A], the IC50 is reported as over 66 µM.
Molecule `NC(=O)N1CCC(CC(=O)N2CCC(C3c4ccc(Cl)c(Br)c4CCc4cc(Br)cnc43)CC2)CC1` (single isomer, unassigned) [Example 13] has an IC50 of over 63 µM.
Molecule `O=C(Cc1cc[n+]([O-])cc1)N1CCN([C@H]2c3ccc(Cl)c(Br)c3CCc3cc(Br)cnc32)CC1` [Example 5] has an IC50 of over 66 µM.
Molecule `O=C(Cc1cc[n+]([O-])cc1)N1CCC(C2c3ccc(Cl)c(Br)c3CCc3cc(Br)cnc32)CC1` (single isomer, unassigned) [Example 14A] has an IC50 of over 62 µM.
